{"source": "patent US9200318B2", "about": "“Reduced inhibition of one-step RT-PCR” (Bio Rad Laboratories, Inc., priority 2007, dated 2015)", "test_system": "reverse transcriptase", "method": "Thaw all components, except the reverse transcriptase, at room temperature. Mix gently, but thoroughly, and then centrifuge at 4° C. to collect contents to the bottom of the tube. Chill on ice before using. Centrifuge again briefly at 4° C. if needed.\nTo a mixture of Taq DNA polymerase, dNTP (dATP, dCTP, dGTP and dTTP), magnesium chloride, stabilizers and SdC, is added a forward primer, a reverse primer, nuclease-free water and a reverse transcriptase. Assemble the reaction cocktail with all required components except sample template (total RNA) and dispense equal aliquots into each reaction tube. Add target sample (RNA template) to each reaction as the final step 5-10 μl volumes.\nThe reaction mixture is then incubated in a real-time thermal detection system as follows: • cDNA synthesis: 10 min at 50° C. • reverse transcriptase inactivation: 5 min at 95° C. • PCR cycling and detection (30 to 45 cycles): 10 sec at 95° C., followed by 30 sec at 55° C. to 60° C.", "note": "Like-named read-outs stand apart in the source and are kept apart here.", "data": [{"compound": "phosphorothioate oligodeoxycytosine [SdC]", "values": [{"measurement": "inhibition of reverse transcriptase in one-step RT-PCR", "setting": "0.1, 0.5, 2 and 10 nM SdC", "result": "reduces the inhibition of reverse transcriptase"}, {"measurement": "specificity of one-step RT-PCR", "setting": "0.1, 0.5, 2 and 10 nM SdC", "result": "significantly improves the specificity of one-step RT-PCR"}]}, {"compound": "Cc1ccc(C(=O)Nc2ccc(S(=O)(=O)O)c3cc(S(=O)(=O)O)cc(S(=O)(=O)O)c23)cc1NC(=O)c1cccc(NC(=O)Nc2cccc(C(=O)Nc3cc(C(=O)Nc4ccc(S(=O)(=O)O)c5cc(S(=O)(=O)O)cc(S(=O)(=O)O)c45)ccc3C)c2)c1", "note": "[suramin]", "values": [{"measurement": "inhibition of reverse transcriptase in one-step RT-PCR", "setting": "4 ng/μl suramin vs absence", "result": "reduces the inhibition of reverse transcriptase"}, {"measurement": "specificity of one-step RT-PCR", "setting": "4 ng/μl suramin vs absence", "result": "significantly improves the specificity of one-step RT-PCR"}]}]}
